Usually IC50 stands for the midpoint of a concentration-inhibition curve.

The values that follow come from US20120115852A1, “HETEROCYCLIC COMPOUNDS AS AUTOTAXIN INHIBITORS” (Merck Patent Gesellschaft Mit Beschrankter Haftung, priority 2009, published 2012).

The experiment has as its target T1, recombinant autotaxin (Homo sapiens, UniProt Q13822).
T1 construct: made in house; host or cells: Hi5 insect cells (baculovirus)
Kind of experiment: Autotaxin test (enzyme test), Amplex Red fluorescence with LPC substrate. It is filed as biochemical. Particulars: autotaxin inhibition (enzyme test); for remaining activity at 10 µM: 10 μM compound, read-out: % Control at 10 μM. The procedure, abridged: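 Purified recombinant autotaxin (baculovirus Hi5-expressed) pre-incubated with compound 30 min at 22° C, then LPC (final 75 μM) added and reacted 90 min at 37° C in Tris pH 8 buffer with CaCl2. Choline released was coupled via alkaline phosphatase, choline oxidase and peroxidase to Amplex Red; resorufin fluorescence read in kinetic mode (ex 485/em 612 nm).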

The structures appear in SMILES notation.

Turning to `O=C1Nc2ccc(-c3ccc(Cl)cc3)cc2C(=O)N2CCN(C(=O)c3cnc[nH]3)CC12` (centres unmarked) [Compound A75, 7-(4-Chlorophenyl)-2-(3H-imidazole-4-carbonyl)-1,3,4,11a-tetrahydro-2H,10H-2,4a,10-triaza-dibenzo[a,d]cycloheptene-5,11-dione], the remaining activity at 10 µM turned out to be 55%. Regarding `O=C1Nc2ccc(-c3ccc(Cl)cc3)cc2C(=O)N2CCN(C(=O)c3csc(-c4cccnc4)n3)CC12` (centres unmarked) [Compound A76, 7-(4-Chlorophenyl)-2-(2-pyridin-3-ylthiazole-4-carbonyl)-1,3,4,11a-tetrahydro-2H,10H-2,4a,10-triazadibenzo[a,d]cycloheptene-5,11-dione], the remaining activity at 10 µM was found to be 41% and the IC50 is greater than 1000 nM. Taken in the same sequence, the figures for `CC(C)[C@@H](O)C(=O)N1CCN2C(=O)c3cc(-c4ccc(Cl)cc4F)ccc3NC(=O)C2C1` (stereo partly drawn) [Compound A77, 7-(4-Chloro-2-fluorophenyl)-2-((R)-2-hydroxy-3-methylbutyryl)-1,3,4,11a-tetrahydro-2H,10H-2,4a,10-triazadibenzo[a,d]cycloheptene-5,11-dione] were 11% and greater than 1000 nM. Taken in the same sequence, the figures for `CC(C)(C)CC(=O)N1CCN2C(=O)c3cc(-c4ccc(Cl)cc4Cl)ccc3NC(=O)C2C1` (centres unmarked) [Compound A78, 7-(2,4-Dichlorophenyl)-2-(3,3-dimethylbutyryl)-1,3,4,11a-tetrahydro-2H,10H-2,4a,10-triaza-dibenzo[a,d]cycloheptene-5,11-dione] were 16% and greater than 1000 nM.

Regarding `CC(C)(C)CC(=O)N1CCN2C(=O)c3cc(-c4cc(F)c(Cl)c(F)c4)ccc3NC(=O)C2C1` (centres unmarked) [Compound A79, 7-(4-Chloro-3,5-difluorophenyl)-2-(3,3-dimethyl-butyryl)-1,3,4,11a-tetrahydro-2H,10H-2,4a,10-triazadibenzo[a,d]cycloheptene-5,11-dione], the remaining activity at 10 µM was -14% and the half-maximal inhibitory concentration (IC50) was in the range of 100 to 1000 nM. As to `CC(C)(C)[C@H](N)C(=O)N1CCN2C(=O)c3cc(-c4ccc(Cl)cc4)ccc3NC(=O)[C@@H]2C1` [Compound A80, (S)-2-((S)-2-Amino-3,3-dimethylbutyryl)-7-(4-chloro-phenyl)-1,3,4,11a-tetrahydro-2H,10H-2,4a,10-triaza-dibenzo[a,d]cycloheptene-5,11-dione], the remaining activity at 10 µM was determined as 44%. Still for that read-out and setting: the result for `O=C1Nc2ccc(-c3ccc(Cl)cc3)cc2C(=O)N2CCN(C(=O)[C@@H]3CCCN3C3CCNCC3)C[C@@H]12` [Compound A81, (S)-7-(4-Chlorophenyl)-2-((S)-1-piperidin-4-yl-pyrrolidine-2-carbonyl)-1,3,4,11a-tetrahydro-2H,10H-2,4a,10-triazadibenzo[a,d]cycloheptene-5,11-dione] reads 33%. As for `Cc1ccc(-c2ccc3c(c2)C(=O)N2CCN(C(=O)CC(C)(C)C)CC2C(=O)N3)c(F)c1F` (centres unmarked) [Compound A82, 7-(2,3-Difluoro-4-methylphenyl)-2-(3,3-dimethyl-butyryl)-1,3,4,11a-tetrahydro-2H,10H-2,4a,10-triazadibenzo[a,d]cycloheptene-5,11-dione], the remaining activity at 10 µM was -16% and the IC50 fell in the range of 100 to 1000 nM. For the compound `CC(C)(C)CC(=O)N1CCN2C(=O)c3cc(-c4cc(C(F)(F)F)ccc4F)ccc3NC(=O)C2C1` (centres unmarked) [Compound A83, 2-(3,3-Dimethylbutyryl)-7-(2-fluoro-5-trifluoromethyl-phenyl)-1,3,4,11a-tetrahydro-2H,10H-2,4a,10-triazadibenzo[a,d]cycloheptene-5,11-dione], the remaining activity at 10 µM turned out to be 81%. Same read-out and setting: the result for `CC(C)(C)CC(=O)N1CCN2C(=O)c3cc(-c4ccc(C(F)(F)F)cc4F)ccc3NC(=O)C2C1` (centres unmarked) [Compound A84, 2-(3,3-Dimethylbutyryl)-7-(2-fluoro-4-trifluoromethyl-phenyl)-1,3,4,11a-tetrahydro-2H,10H-2,4a,10-triazadibenzo[a,d]cycloheptene-5,11-dione] reads 29%. Consider `CC(C)(C)CC(=O)N1CCN2C(=O)c3cc(-c4cc(Cl)ccc4F)ccc3NC(=O)C2C1` (centres unmarked) [Compound A85, 7-(5-Chloro-2-fluorophenyl)-2-(3,3-dimethylbutyryl)-1,3,4,11a-tetrahydro-2H,10H-2,4a,10-triaza-dibenzo[a,d]cycloheptene-5,11-dione], for which the remaining activity at 10 µM turned out to be 13% and the IC50 is greater than 1000 nM. Turning to `Cc1ccc(-c2ccc3c(c2)C(=O)N2CCN(C(=O)CC(C)(C)C)CC2C(=O)N3)c(C)c1` (centres unmarked) [Compound A86, 2-(3,3-Dimethylbutyryl)-7-(2,4-dimethylphenyl)-1,3,4,11a-tetrahydro-2H,10H-2,4a,10-triaza-dibenzo[a,d]cycloheptene-5,11-dione], the remaining activity at 10 µM stood at 78%. Take `CC(C)(C)CC(=O)N1CCN2C(=O)c3cc(-c4cccc(C(F)(F)F)c4)ccc3NC(=O)C2C1` (centres unmarked) [Compound A87, 2-(3,3-Dimethylbutyryl)-7-(3-trifluoromethylphenyl)-1,3,4,11a-tetrahydro-2H,10H-2,4a,10-triaza-dibenzo[a,d]cycloheptene-5,11-dione]: the remaining activity at 10 µM stood at 74% and the IC50 was greater than 1000 nM.

Regarding `CC(C)(C)CC(=O)N1CCN2C(=O)c3cc(-c4cccc(F)c4F)ccc3NC(=O)C2C1` (centres unmarked) [Compound A88, 7-(2,3-Difluorophenyl)-2-(3,3-dimethylbutyryl)-1,3,4,11a-tetrahydro-2H,10H-2,4a,10-triaza-dibenzo[a,d]cycloheptene-5,11-dione], the remaining activity at 10 µM is -6% and the concentration for half-maximal inhibition (IC50) was greater than 1000 nM. Taken in the same sequence, the figures for `CC(C)(C)CC(=O)N1CCN2C(=O)c3cc(-c4cc(F)ccc4F)ccc3NC(=O)C2C1` (centres unmarked) [Compound A89, 7-(2,5-Difluorophenyl)-2-(3,3-dimethylbutyryl)-1,3,4,11a-tetrahydro-2H,10H-2,4a,10-triaza-dibenzo[a,d]cycloheptene-5,11-dione] were 4% and greater than 1000 nM. For the compound `Cc1ccc(-c2ccc3c(c2)C(=O)N2CCN(C(=O)CC(C)(C)C)CC2C(=O)N3)cc1C` (centres unmarked) [Compound A90, 2-(3,3-Dimethylbutyryl)-7-(3,4-dimethylphenyl)-1,3,4,11a-tetrahydro-2H,10H-2,4a,10-triaza-dibenzo[a,d]cycloheptene-5,11-dione], the remaining activity at 10 µM is 24% and the IC50 was greater than 1000 nM. Taken in the same sequence, the figures for `CC(C)(C)CC(=O)N1CCN2C(=O)c3cc(-c4ccc(F)cc4F)ccc3NC(=O)C2C1` (centres unmarked) [Compound A91, 7-(2,4-Difluorophenyl)-2-(3,3-dimethylbutyryl)-1,3,4,11a-tetrahydro-2H,10H-2,4a,10-triaza-dibenzo[a,d]cycloheptene-5,11-dione] were -6% and greater than 1000 nM. Regarding `CC(C)(C)CC(=O)N1CCN2C(=O)c3cc(-c4cc(F)c(F)cc4F)ccc3NC(=O)C2C1` (centres unmarked) [Compound A92, 2-(3,3-Dimethylbutyryl)-7-(2,4,5-trifluorophenyl)-1,3,4,11a-tetrahydro-2H,10H-2,4a,10-triaza-dibenzo[a,d]cycloheptene-5,11-dione], the remaining activity at 10 µM was found to be 1% and the 50% inhibitory concentration (IC50) is greater than 1000 nM. As for `O=C1Nc2ccc(-c3ccc(Cl)cc3F)cc2C(=O)N2CCN(C(=O)[C@H]3CCCN3C3CCNCC3)CC12` (stereo partly drawn) [Compound A93, 7-(4-Chloro-2-fluorophenyl)-2-((R)-1-piperidin-4-ylpyrrolidine-2-carbonyl)-1,3,4,11a-tetrahydro-2H,10H-2,4a,10-triazadibenzo[a,d]cycloheptene-5,11-dione], the remaining activity at 10 µM amounted to 17%.

Turning to `CC(C)(C)CC(=O)N1CCN2C(=O)c3cc(-c4ccc(Cl)c(F)c4)ccc3NC(=O)C2C1` (centres unmarked) [Compound A94, 7-(4-Chloro-3-fluorophenyl)-2-(3,3-dimethylbutyryl)-1,3,4,11a-tetrahydro-2H,10H-2,4a,10-triaza-dibenzo[a,d]cycloheptene-5,11-dione], the remaining activity at 10 µM is -18% and the half-inhibitory concentration (IC50) was greater than 1000 nM.

Take `Cn1cc(CCC(=O)N2CCN3C(=O)c4cc(-c5ccc(Cl)cc5F)ccc4NC(=O)C3C2)cn1` (centres unmarked) [Compound A95, 7-(4-Chloro-2-fluorophenyl)-2-[3-(1-methyl-1H-pyrazol-4-yl)propionyl]-1,3,4,11a-tetrahydro-2H,10H-2,4a,10-triazadibenzo[a,d]cycloheptene-5,11-dione]: the remaining activity at 10 µM is 15% and the IC50 was greater than 1000 nM. In the case of `CC(C)(C)[C@H](O)C(=O)N1CCN2C(=O)c3cc(-c4ccc(Cl)cc4F)ccc3NC(=O)[C@H]2C1` [Compound A96, (R)-7-(4-Chloro-2-fluorophenyl)-2-((S)-2-hydroxy-3,3-dimethylbutyryl)-1,3,4,11a-tetrahydro-2H,10H-2,4a,10-triazadibenzo[a,d]cycloheptene-5,11-dione], the remaining activity at 10 µM came to 1% and the IC50 lay in the range of 100 to 1000 nM.

Turning to `Cn1cc(CCC(=O)N2CCN3C(=O)c4cc(-c5ccc(Cl)cc5F)ccc4NC(=O)[C@H]3C2)cn1` [Compound A97, (R)-7-(4-Chloro-2-fluorophenyl)-2-[3-(1-methyl-1H-pyrazol-4-yl)propionyl]-1,3,4,11a-tetrahydro-2H,10H-2,4a,10-triazadibenzo[a,d]cycloheptene-5,11-dione], the remaining activity at 10 µM stood at 19% and the IC50 is 100 to 1000 nM. As to `Cn1cc(CCC(=O)N2CCN3C(=O)c4cc(-c5ccc(Cl)cc5F)ccc4NC(=O)[C@@H]3C2)cn1` [Compound A98, (S)-7-(4-Chloro-2-fIuorophenyl)-2-[3-(1-methyl-1H-pyrazol-4-yl)propionyl]-1,3,4,11a-tetrahydro-2H,10H-2,4a,10-triazadibenzo[a,d]cycloheptene-5,11-dione], the remaining activity at 10 µM turned out to be 90% and the IC50 is greater than 1000 nM.
